Experimental data published in the NIST ThermoML archive (doi:10.1021/je060271a).

Settings: 283.16 K, Liquid, Vibrating tube method

CCCC(=O)OCC(COC(=O)CCC)(COC(=O)CCC)COC(=O)CCC [pentaerythritol tetrabutyrate]
Settings | mass density [kg/m3]
6243.9 kPa | 1062.8
6250.7 kPa | 1062.7
6257.4 kPa | 1062.7
6265.2 kPa | 1062.8
6271.9 kPa | 1062.7
6278.8 kPa | 1062.7
6300.1 kPa | 1062.8
6308.2 kPa | 1062.8
6314.8 kPa | 1062.8
6321.7 kPa | 1062.7
6328.1 kPa | 1062.7
6336.4 kPa | 1062.8
6343.5 kPa | 1062.8
6350.2 kPa | 1062.8
6357.3 kPa | 1062.8
6365.3 kPa | 1062.7
6372 kPa | 1062.8
6379.3 kPa | 1062.6
6387.5 kPa | 1062.7
6394.3 kPa | 1062.7
6401.4 kPa | 1062.9
6408.5 kPa | 1062.8
6416.8 kPa | 1062.8
6423.7 kPa | 1062.9
6432.1 kPa | 1062.8
6439.2 kPa | 1062.8
6446.1 kPa | 1062.8
6453.2 kPa | 1062.8
6460.5 kPa | 1062.8
6469.1 kPa | 1062.8
6476 kPa | 1062.8
6483.3 kPa | 1062.8
6491.8 kPa | 1062.9
6498.7 kPa | 1062.8
6505.9 kPa | 1062.9
6513.4 kPa | 1062.8
6522.2 kPa | 1062.9
6529.1 kPa | 1062.9
6536.5 kPa | 1062.8
6543.9 kPa | 1062.9
6552.9 kPa | 1062.9
6560.5 kPa | 1062.9
6567.3 kPa | 1062.9
6575.9 kPa | 1062.8
6583.2 kPa | 1062.9
6590.8 kPa | 1062.9
6598.2 kPa | 1062.9
6606.8 kPa | 1062.9
6614.3 kPa | 1062.9
6621.5 kPa | 1062.9
6630.5 kPa | 1062.9
6638.3 kPa | 1062.9
6645.9 kPa | 1062.8
6653.6 kPa | 1062.9
6662.1 kPa | 1063
6669.8 kPa | 1062.9
6678.8 kPa | 1063
6685.9 kPa | 1063
6693.8 kPa | 1063
6701.4 kPa | 1063.1
6710.6 kPa | 1063
6718.2 kPa | 1062.9
6725.8 kPa | 1063
6735.1 kPa | 1062.8
6742.9 kPa | 1063.1
6750.9 kPa | 1063
6759.3 kPa | 1062.9
6766.9 kPa | 1062.9
6774.9 kPa | 1063
6784.2 kPa | 1063
6799.4 kPa | 1063
6808.2 kPa | 1063.1
6815.3 kPa | 1063
6822.2 kPa | 1063
6830 kPa | 1063.1
6835.8 kPa | 1063.1
6840.7 kPa | 1063.1
6845.5 kPa | 1063
6861.6 kPa | 1063
6890.3 kPa | 1063
6919.1 kPa | 1063
6948.8 kPa | 1063
6983.9 kPa | 1063.1
7013.2 kPa | 1063.2
7043.3 kPa | 1063.1
7073.9 kPa | 1063.2
7111.3 kPa | 1063.2
7141.9 kPa | 1063.2
7172.4 kPa | 1063.1
7231.8 kPa | 1063.2
7286.9 kPa | 1063.4
7348.1 kPa | 1063.3
7377.4 kPa | 1063.2
7488.6 kPa | 1063.5
7519.7 kPa | 1063.4
7758.9 kPa | 1063.6
7783.9 kPa | 1063.7
7814.3 kPa | 1063.5
7838.8 kPa | 1063.7
7861.2 kPa | 1063.7
7886.6 kPa | 1063.7
7908.5 kPa | 1063.6
7930.2 kPa | 1063.7
7952.2 kPa | 1063.7
7978.4 kPa | 1063.7
8000.3 kPa | 1063.7
8022.4 kPa | 1063.7
8048.9 kPa | 1063.8
8071.7 kPa | 1063.7
8094.5 kPa | 1063.8
8121.4 kPa | 1063.8
8144.2 kPa | 1063.9
8166.8 kPa | 1063.7
8194.2 kPa | 1063.8
8217.7 kPa | 1063.9
8241.7 kPa | 1063.9
8269.4 kPa | 1063.8
8316.5 kPa | 1063.8
8340.2 kPa | 1063.9
8369.1 kPa | 1063.9
8393.5 kPa | 1063.9
8418.1 kPa | 1063.9
8448 kPa | 1063.9
8472.3 kPa | 1064
8501.9 kPa | 1064.2
8527.3 kPa | 1064
8553.2 kPa | 1064.1
8580.4 kPa | 1064
8605.5 kPa | 1064
8631.2 kPa | 1064.1
8662.6 kPa | 1064
8688.3 kPa | 1064
8719.9 kPa | 1064.1
8746.3 kPa | 1064.2
8772.8 kPa | 1064.2
8799 kPa | 1064.1
8831.6 kPa | 1064.1
8858.5 kPa | 1064.2
8886.1 kPa | 1064.3
8920.4 kPa | 1064.2
8949 kPa | 1064.2
8976.4 kPa | 1064.3
9004.9 kPa | 1064.3
9038.9 kPa | 1064.3
9067 kPa | 1064.4
9095.4 kPa | 1064.4
9129.5 kPa | 1064.3
9159 kPa | 1064.5
9187.9 kPa | 1064.3
9222.8 kPa | 1064.4
9252.1 kPa | 1064.4
9282.2 kPa | 1064.4
9318.6 kPa | 1064.4
9349.3 kPa | 1064.5
9379.8 kPa | 1064.5
9411 kPa | 1064.4
9447.8 kPa | 1064.7
9478.5 kPa | 1064.7
9515.9 kPa | 1064.6
9547.2 kPa | 1064.6
9578.8 kPa | 1064.6
9616.9 kPa | 1064.6
9649.2 kPa | 1064.6
9681.5 kPa | 1064.6
9714.5 kPa | 1064.6
9755.2 kPa | 1064.8
9788.8 kPa | 1064.7
9830.3 kPa | 1064.6
9864.7 kPa | 1064.7
9896.4 kPa | 1064.8
9925.9 kPa | 1064.9
9960.2 kPa | 1064.8
9989.6 kPa | 1064.9
10025 kPa | 1064.8
10056 kPa | 1064.9
10087 kPa | 1064.9
10121 kPa | 1065
10145 kPa | 1065.1
10167 kPa | 1064.9
10189 kPa | 1064.9
10215 kPa | 1064.9
10238 kPa | 1065
10260 kPa | 1065.1
10278 kPa | 1064.9
10293 kPa | 1065.1
10311 kPa | 1065
10327 kPa | 1065
10342 kPa | 1065
10358 kPa | 1065
10377 kPa | 1065.1
10392 kPa | 1065.1
10408 kPa | 1065.2
10427 kPa | 1065
10443 kPa | 1065.1
10459 kPa | 1065.2
10478 kPa | 1065.1
10494 kPa | 1065.2
10510 kPa | 1065.3
10526 kPa | 1065.2
10545 kPa | 1065.3
10561 kPa | 1065.2
10578 kPa | 1065.2
10597 kPa | 1065.2
10613 kPa | 1065.3
10630 kPa | 1065.3
10646 kPa | 1065.2
10666 kPa | 1065.2
10682 kPa | 1065.2
10699 kPa | 1065.3
10719 kPa | 1065.4
10735 kPa | 1065.3
10755 kPa | 1065.2
10773 kPa | 1065.3
10789 kPa | 1065.4
10806 kPa | 1065.3
10827 kPa | 1065.4
10845 kPa | 1065.2
10863 kPa | 1065.3
10879 kPa | 1065.4
10900 kPa | 1065.5
10917 kPa | 1065.4
10934 kPa | 1065.4
10955 kPa | 1065.4
10972 kPa | 1065.4
10990 kPa | 1065.3
11010 kPa | 1065.4
11028 kPa | 1065.5
11046 kPa | 1065.4
11067 kPa | 1065.5
11086 kPa | 1065.4
11104 kPa | 1065.4
11122 kPa | 1065.5
11144 kPa | 1065.5
11162 kPa | 1065.7
11180 kPa | 1065.5
11202 kPa | 1065.6
11220 kPa | 1065.5
11238 kPa | 1065.6
11257 kPa | 1065.4
11279 kPa | 1065.6
11298 kPa | 1065.7
11316 kPa | 1065.6
11339 kPa | 1065.7
11479 kPa | 1065.6
11499 kPa | 1065.8
11522 kPa | 1065.7
11541 kPa | 1065.8
11561 kPa | 1065.7
11584 kPa | 1065.8
11604 kPa | 1065.8
11624 kPa | 1065.8
11643 kPa | 1065.8
11970 kPa | 1065.9
12038 kPa | 1066.1
12063 kPa | 1066.2
12084 kPa | 1066.1
12106 kPa | 1066.2
12132 kPa | 1066
12154 kPa | 1066.1
12175 kPa | 1066.1
12198 kPa | 1066.1
12224 kPa | 1066.2
12246 kPa | 1066.2
12268 kPa | 1066.1
12294 kPa | 1066.2
12316 kPa | 1066.3
12338 kPa | 1066.3
12365 kPa | 1066.3
12388 kPa | 1066.2
12410 kPa | 1066.3
12437 kPa | 1066.3
12460 kPa | 1066.2
12483 kPa | 1066.3
12510 kPa | 1066.3
12533 kPa | 1066.3
12556 kPa | 1066.3
12584 kPa | 1066.4
12607 kPa | 1066.4
12630 kPa | 1066.3
12659 kPa | 1066.4
12682 kPa | 1066.4
12705 kPa | 1066.3
12734 kPa | 1066.3
12758 kPa | 1066.4
12784 kPa | 1066.6
12809 kPa | 1066.5
12838 kPa | 1066.5
12862 kPa | 1066.4
12886 kPa | 1066.5
12911 kPa | 1066.6
12940 kPa | 1066.6
12965 kPa | 1066.6
12994 kPa | 1066.6
